Results on two molecules are retold here after article PMC8119466, “A screen of FDA-approved drugs identifies inhibitors of protein tyrosine phosphatase 4A3 (PTP4A3 or PRL-3)” (Scientific Reports, 2021).

One experiment addresses T1, recombinant PRL-1 (Homo sapiens, UniProt Q93096).
T1 construct: 6xHis (N, cleaved yes); made in house; host or cells: E. coli One Shot BL21 Star
T1 sequence (Q93096 1-173): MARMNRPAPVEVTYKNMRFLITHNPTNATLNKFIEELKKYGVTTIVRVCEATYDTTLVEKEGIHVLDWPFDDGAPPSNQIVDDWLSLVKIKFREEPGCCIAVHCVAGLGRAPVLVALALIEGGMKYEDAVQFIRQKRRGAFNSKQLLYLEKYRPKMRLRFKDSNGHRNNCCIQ
The experiment can be described thus: In vitro phosphatase assay (DiFMUP hydrolysis), PRL-1. Format: biochemical. As to conditions: for % Phosphatase Activity (compared to DMSO) PRL-1: FDA-approved drug screen; for IC50: DiFMUP at KM, read-out: Calculated IC50, PRL-1 phosphatase activity.

In a further experiment the target is T2, recombinant PRL-2 (Homo sapiens, UniProt Q12974).
T2 construct: 6xHis (N, cleaved yes); made in house; host or cells: E. coli One Shot BL21 Star
T2 sequence (Q12974 1-167): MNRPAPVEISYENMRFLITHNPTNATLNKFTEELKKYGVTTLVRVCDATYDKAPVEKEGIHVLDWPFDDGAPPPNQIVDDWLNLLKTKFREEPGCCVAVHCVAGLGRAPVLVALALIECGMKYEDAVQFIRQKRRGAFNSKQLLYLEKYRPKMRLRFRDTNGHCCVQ
The experiment can be described thus: In vitro phosphatase assay (DiFMUP hydrolysis), PRL-2.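 For all read-outs here: PRL-2 activity read as DiFMUP hydrolysis after 20 min at room temperature with drug, enzyme first pre-reduced at 4 °C for 20 min.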 Format: biochemical. As to conditions: for % Phosphatase Activity (compared to DMSO) PRL-2: FDA-approved drug screen.

In another experiment the target is T3, recombinant PRL-3 (Homo sapiens, UniProt O75365).
T3 construct: 6xHis (N, cleaved yes); made in house; host or cells: E. coli One Shot BL21 Star
T3 sequence (O75365 whole entry): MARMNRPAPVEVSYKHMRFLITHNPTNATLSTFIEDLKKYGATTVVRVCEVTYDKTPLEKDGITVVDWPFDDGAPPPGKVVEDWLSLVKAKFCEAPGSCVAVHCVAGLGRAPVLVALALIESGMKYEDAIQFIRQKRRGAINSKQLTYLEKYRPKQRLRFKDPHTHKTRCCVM
The experiment can be described thus: In vitro phosphatase assay (DiFMUP hydrolysis), PRL-3. Format: biochemical. As to conditions: for % Phosphatase Activity (compared to DMSO) PRL-3: FDA-approved drug screen; for IC50: DiFMUP at KM, read-out: Calculated IC50, PRL-3 phosphatase activity; for mode of inhibition (Lineweaver-Burke analysis): versus DiFMUP substrate, reduce apparent Vmax, do not affect KM.

Experiment [1] relates to HEK293T cells. The experiment can be described thus: Scratch (migration) assay, HEK293T transfected with PRL-3 or empty vector. Type of experiment: cell-based, human. As to conditions: compared to DMSO; for cellular migration in control cells: HEK293T empty vector, 24 h; for cellular migration in PRL-3 overexpressing cells: HEK293T transfected with PRL-3, 24 h. The procedure: pENTR-PRL-3 (previously described[51]) was cloned into pLKO-CMV-puro using LR clonase (Thermofisher, 11,791,019) according to manufacturer’s directions. pLKO-CMV empty vector (EV) and pLKO-CMV:PRL-3 were transfected into HEK293T using Lipofectamine 3000 (ThermoFisher, L3000015) according to manufacturer’s protocol. Transfected cells were selected with 1 µg/mL puromycin in complete media to establish the cell line, then were maintained under 0.5 µg/mL puromycin in complete media. For PRL-3 knockdown, pLKO.1-scrambled shRNA and pLKO.1-PRL-3 shRNA[51] plasmids were transfected into HCT116 cells using Lipofectamine 3000 (Thermo Fisher, Cat # L3000015) according to the manufacturer’s directions. Cells were selected for 48 h in 1 µg/mL puromycin before use in assays.
Cells were seeded into duplicate wells of a 48 well plates at a density of 2 × 10^5 cells per well for HEK293T or 4 × 10^5 for HCT116 and SW480. Cells were recovered overnight and were scratched using a p20 pipette tip the following day. Compounds were added at the concentrations indicated. Images were obtained immediately after the scratch and after a 24 h incubation with the drug on an Evos FL inverted microscope (ThermoFisher). The area within the scratch was calculated using ImageJ. The area migrated was measured as the difference in wound area at 0 h and 24 h and the percent change in migration was calculated by dividing the difference in wound area of treatment by the difference in wound area of the control.

Experiment [2] relates to HEK293T cells. The experiment can be described thus: Click-IT Edu cell proliferation assay, HEK293T. As to conditions: 100 µM Salirasib or 25 µM Candesartan, 24 and 48 hr. Type of experiment: cell-based, human. As to the method: (§1) The cell proliferation assay was performed using the Click-IT Edu cell proliferation kit from (Thermo Fisher, Cat # C10419) according to the manufacturer’s protocol. Briefly, HEK293T, HCT116 and SW480 cells were plated in 6 well dishes at 4 × 10^5 cell seeding density and treated with DMSO, Candesartan and Salirasib at the indicated concentrations. Edu was added 2 h prior to collecting the cells at 24 h and 48 h time points and the assay was performed according to the instructions from the manual. Flow cytometry with AlexaFluor647 conjugated azide dye was used to determine the cellular proliferation and DAPI was used for the DNA content.

Another experiment has as its system HCT116 cells. The experiment can be described thus: Click-IT Edu cell proliferation assay, HCT116. Format: cell-based, human. The conditions noted are these: HCT-116; 100 µM Salirasib or 25 µM Candesartan; 24 and 48 hr. The procedure: as §1
The subject of the next experiment is SW480 cells. The experiment can be described thus: Click-IT Edu cell proliferation assay, SW480. Format: cell-based, human. As to conditions: 100 µM Salirasib or 25 µM Candesartan, 24 and 48 hr. The procedure:
as §1

The next experiment addresses T4, ACP1 (LMPTP-B) (Homo sapiens, UniProt P24666).
T4 construct: purchased Eurofins PP260
The experiment can be described thus: PhosphataseProfiler (Eurofins) selectivity panel. The conditions noted are these: 25µM. Type of experiment: biochemical.

A further experiment concerns the target T5, PP1alpha (Homo sapiens, UniProt P62136).
T5 construct: purchased Eurofins PP260
Description: PhosphataseProfiler (Eurofins) selectivity panel. The conditions noted are these: 25µM. Type of experiment: biochemical.

A further experiment addresses T6, PTPbeta (Homo sapiens, UniProt P23467).
T6 construct: purchased Eurofins PP260
Description: PhosphataseProfiler (Eurofins) selectivity panel. Format: biochemical. As to conditions: 25µM.

In another experiment the target is T7, CD45 (Homo sapiens, UniProt P08575).
T7 construct: purchased Eurofins PP260
T7 sequence (P08575 26-1306): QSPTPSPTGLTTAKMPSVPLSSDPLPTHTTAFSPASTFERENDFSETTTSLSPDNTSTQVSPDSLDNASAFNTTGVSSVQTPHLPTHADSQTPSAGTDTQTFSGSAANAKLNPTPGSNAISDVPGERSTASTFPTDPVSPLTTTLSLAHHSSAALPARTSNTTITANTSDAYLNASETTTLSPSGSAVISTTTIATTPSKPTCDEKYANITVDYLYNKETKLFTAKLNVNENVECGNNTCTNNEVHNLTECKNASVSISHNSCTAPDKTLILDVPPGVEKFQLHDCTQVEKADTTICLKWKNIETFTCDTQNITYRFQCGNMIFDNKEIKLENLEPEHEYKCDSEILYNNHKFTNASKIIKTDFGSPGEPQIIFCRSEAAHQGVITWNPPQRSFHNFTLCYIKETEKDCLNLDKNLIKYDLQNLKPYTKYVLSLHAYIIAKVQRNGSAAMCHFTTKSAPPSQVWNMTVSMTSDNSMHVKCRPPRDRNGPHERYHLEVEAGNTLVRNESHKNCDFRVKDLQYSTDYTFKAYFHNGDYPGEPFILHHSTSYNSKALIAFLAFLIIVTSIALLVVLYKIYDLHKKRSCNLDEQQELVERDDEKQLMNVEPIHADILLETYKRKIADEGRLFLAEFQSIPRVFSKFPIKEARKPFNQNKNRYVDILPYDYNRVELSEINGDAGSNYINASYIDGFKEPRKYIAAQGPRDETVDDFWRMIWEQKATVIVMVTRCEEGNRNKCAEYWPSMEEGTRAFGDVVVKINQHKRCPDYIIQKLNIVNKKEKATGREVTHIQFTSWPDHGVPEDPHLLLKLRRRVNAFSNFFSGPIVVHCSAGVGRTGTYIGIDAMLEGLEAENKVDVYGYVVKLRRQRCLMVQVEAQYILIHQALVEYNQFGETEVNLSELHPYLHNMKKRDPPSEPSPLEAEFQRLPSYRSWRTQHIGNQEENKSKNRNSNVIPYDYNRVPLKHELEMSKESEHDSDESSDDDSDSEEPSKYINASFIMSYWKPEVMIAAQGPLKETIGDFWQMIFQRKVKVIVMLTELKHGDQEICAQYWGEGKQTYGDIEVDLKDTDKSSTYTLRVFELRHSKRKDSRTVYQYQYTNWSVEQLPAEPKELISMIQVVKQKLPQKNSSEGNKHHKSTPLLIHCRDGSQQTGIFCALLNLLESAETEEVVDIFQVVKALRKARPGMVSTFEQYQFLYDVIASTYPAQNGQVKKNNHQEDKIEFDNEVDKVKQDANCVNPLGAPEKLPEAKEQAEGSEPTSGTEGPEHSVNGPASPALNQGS
The experiment can be described thus: PhosphataseProfiler (Eurofins) selectivity panel. Type of experiment: biochemical. As to conditions: CD45, 25µM. As to the method:
(§2) In 384 well plates, 2.5 μM recombinant PRL-1, PRL-2, or PRL-3 was combined with DiFUMP (Life Technologies, Cat # E12020) at the KM of each protein in reaction buffer (20 mM Tris–Cl, pH 7.5, 150 mM NaCl, 10 mM DTT) as previously reported. Briefly, protein was diluted in reaction buffer and allowed to incubate at 4 °C for 20 min to allow for full reduction of the active site. DiFMUP, drug, and protein were added, and plates were incubated for 20 min at room temperature. Fluorescence intensities were measured on a Cytation 5 plate reader (Biotek) at an EX:360 nm and EM:460 nm. Data were normalized to vehicle control and IC50 values were calculated on GraphPad Prism version 8. Inhibition selectivity for PRLs over a panel of other phosphatases was determined using PhosphataseProfiler (Eurofins, Cat # PP260).

The next experiment addresses T8, Lambda PP (Escherichia phage lambda, UniProt P03772).
T8 construct: purchased Eurofins PP260
The experiment can be described thus: PhosphataseProfiler (Eurofins) selectivity panel. Format: biochemical. As to conditions: 25µM. The procedure:
as §2

Another experiment concerns PP2A. The experiment can be described thus: PhosphataseProfiler (Eurofins) selectivity panel. Type of experiment: biochemical. The conditions noted are these: 25µM. The procedure:
as §2

Another experiment concerns the target T9, PTPMEG (Homo sapiens, UniProt P29074).
T9 construct: purchased Eurofins PP260
The experiment can be described thus: PhosphataseProfiler (Eurofins) selectivity panel. Type of experiment: biochemical. As to conditions: 25µM. As to the method: as §2

A further experiment deals with T10, PTPMEG2 (Homo sapiens, UniProt P43378).
T10 construct: purchased Eurofins PP260
T10 sequence (P43378 whole entry): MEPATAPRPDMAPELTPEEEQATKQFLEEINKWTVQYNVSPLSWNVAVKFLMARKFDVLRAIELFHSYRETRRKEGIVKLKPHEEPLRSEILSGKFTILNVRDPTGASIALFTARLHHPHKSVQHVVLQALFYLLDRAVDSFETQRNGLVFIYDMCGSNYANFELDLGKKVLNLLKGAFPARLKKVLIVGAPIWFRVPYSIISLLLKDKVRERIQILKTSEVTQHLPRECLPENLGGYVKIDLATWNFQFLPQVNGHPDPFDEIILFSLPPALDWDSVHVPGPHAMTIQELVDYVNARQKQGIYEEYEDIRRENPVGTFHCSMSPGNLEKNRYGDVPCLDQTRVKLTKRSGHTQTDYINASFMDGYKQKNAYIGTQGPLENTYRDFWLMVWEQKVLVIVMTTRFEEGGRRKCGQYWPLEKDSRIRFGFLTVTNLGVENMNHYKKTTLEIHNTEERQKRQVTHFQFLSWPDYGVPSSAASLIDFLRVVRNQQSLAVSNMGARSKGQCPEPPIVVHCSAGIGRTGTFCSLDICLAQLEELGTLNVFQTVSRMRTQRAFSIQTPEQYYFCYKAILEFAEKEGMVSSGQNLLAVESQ
The experiment can be described thus: PhosphataseProfiler (Eurofins) selectivity panel. Format: biochemical. As to conditions: PTPMEG2, 25µM. The procedure: as §2

In another experiment the target is T11, SHP1 (Homo sapiens, UniProt P29350).
T11 construct: purchased Eurofins PP260
T11 sequence (P29350 whole entry): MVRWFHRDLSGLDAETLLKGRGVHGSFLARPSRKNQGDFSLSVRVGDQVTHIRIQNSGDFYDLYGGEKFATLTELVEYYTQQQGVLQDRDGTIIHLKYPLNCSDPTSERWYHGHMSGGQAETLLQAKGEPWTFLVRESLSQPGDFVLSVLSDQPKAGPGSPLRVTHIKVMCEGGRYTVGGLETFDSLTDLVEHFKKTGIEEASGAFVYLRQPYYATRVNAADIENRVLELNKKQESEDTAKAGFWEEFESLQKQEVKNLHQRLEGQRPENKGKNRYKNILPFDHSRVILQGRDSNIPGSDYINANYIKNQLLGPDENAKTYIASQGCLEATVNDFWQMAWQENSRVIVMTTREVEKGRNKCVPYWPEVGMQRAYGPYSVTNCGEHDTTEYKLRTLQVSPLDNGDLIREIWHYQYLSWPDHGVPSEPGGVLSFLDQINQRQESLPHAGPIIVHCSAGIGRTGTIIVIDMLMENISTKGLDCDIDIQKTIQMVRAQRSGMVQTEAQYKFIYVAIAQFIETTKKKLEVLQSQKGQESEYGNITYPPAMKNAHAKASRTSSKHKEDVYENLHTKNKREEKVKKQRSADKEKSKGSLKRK
The experiment can be described thus: PhosphataseProfiler (Eurofins) selectivity panel. Type of experiment: biochemical. The conditions noted are these: SHP1, 25µM.

Another experiment addresses T12, SHP2 (Homo sapiens, UniProt Q06124).
T12 construct: purchased Eurofins PP260
The experiment can be described thus: PhosphataseProfiler (Eurofins) selectivity panel. The conditions noted are these: SHP2, 25µM. Format: biochemical.

For a further experiment, the target named is T13, VHR (Homo sapiens, UniProt P51452).
T13 construct: purchased Eurofins PP260
Description: PhosphataseProfiler (Eurofins) selectivity panel. Format: biochemical. As to conditions: 25µM.

Setting [3] is: listed as Candesartan Cilexetil.

Read-outs that look alike come from different tables or passages of the source.

T9 sequence (P29074 whole entry): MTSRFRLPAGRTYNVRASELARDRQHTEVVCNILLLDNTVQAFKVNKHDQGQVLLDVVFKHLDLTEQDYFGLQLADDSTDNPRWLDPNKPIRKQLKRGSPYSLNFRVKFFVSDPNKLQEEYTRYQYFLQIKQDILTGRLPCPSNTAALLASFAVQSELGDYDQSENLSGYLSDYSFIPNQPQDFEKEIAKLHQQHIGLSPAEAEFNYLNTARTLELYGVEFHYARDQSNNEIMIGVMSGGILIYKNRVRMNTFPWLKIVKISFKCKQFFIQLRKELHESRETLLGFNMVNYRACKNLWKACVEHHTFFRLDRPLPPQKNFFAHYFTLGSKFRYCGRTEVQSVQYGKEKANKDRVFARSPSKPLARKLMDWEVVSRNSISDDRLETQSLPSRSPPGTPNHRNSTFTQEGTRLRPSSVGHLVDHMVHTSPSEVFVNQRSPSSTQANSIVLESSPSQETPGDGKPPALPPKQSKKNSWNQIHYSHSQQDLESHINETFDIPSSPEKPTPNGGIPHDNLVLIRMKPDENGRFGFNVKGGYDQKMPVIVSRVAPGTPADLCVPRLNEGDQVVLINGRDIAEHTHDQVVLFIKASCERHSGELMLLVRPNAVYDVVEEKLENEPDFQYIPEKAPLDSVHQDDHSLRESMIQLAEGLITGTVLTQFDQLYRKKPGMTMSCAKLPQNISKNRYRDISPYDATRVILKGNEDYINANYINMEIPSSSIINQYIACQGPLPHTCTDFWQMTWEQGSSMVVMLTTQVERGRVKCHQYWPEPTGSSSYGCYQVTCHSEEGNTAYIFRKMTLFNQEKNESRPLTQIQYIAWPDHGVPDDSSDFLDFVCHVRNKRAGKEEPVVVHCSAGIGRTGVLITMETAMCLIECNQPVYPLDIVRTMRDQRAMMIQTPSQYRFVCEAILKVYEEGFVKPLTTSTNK
T8 sequence (P03772 whole entry): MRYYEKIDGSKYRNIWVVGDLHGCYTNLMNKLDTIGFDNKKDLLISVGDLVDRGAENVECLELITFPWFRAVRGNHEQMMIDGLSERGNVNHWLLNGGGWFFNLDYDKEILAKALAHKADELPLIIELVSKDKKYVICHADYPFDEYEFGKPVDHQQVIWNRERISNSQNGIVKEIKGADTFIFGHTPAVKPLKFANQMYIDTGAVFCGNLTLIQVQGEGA
T4 sequence (P24666 1-158 isoform P24666-2): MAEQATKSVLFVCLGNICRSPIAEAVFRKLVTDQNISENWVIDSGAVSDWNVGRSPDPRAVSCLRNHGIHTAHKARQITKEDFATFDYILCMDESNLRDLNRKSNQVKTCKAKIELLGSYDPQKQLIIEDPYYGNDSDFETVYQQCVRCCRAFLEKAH
T5 sequence (P62136 whole entry): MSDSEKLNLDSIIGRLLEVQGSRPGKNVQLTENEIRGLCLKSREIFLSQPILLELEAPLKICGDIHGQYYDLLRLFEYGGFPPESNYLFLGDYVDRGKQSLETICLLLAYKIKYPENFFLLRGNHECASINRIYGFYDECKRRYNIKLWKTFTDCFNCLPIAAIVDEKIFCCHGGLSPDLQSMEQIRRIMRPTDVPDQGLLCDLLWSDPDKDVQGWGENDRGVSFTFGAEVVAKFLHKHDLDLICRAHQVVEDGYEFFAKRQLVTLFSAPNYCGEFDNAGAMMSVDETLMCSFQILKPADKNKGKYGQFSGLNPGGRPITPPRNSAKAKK
T12 sequence (Q06124 whole entry): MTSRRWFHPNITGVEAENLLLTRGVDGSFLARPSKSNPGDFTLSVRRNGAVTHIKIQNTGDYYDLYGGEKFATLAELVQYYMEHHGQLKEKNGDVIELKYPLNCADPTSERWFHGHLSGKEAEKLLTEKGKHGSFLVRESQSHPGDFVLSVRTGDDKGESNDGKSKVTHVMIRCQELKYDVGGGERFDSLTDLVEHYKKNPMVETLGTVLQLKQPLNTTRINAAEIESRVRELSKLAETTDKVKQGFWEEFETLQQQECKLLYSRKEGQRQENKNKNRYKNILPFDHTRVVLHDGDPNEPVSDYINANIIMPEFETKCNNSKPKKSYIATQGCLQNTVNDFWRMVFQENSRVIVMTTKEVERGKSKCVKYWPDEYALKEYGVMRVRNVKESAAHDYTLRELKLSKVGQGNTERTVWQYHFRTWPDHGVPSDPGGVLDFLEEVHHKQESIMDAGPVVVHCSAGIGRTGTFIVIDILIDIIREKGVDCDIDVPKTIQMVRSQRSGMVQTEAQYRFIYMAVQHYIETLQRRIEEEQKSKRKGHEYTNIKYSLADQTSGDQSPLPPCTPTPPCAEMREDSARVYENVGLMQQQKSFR
Description for ACP1 (LMPTP-B): Briefly, protein was diluted in reaction buffer and allowed to incubate at 4 °C for 20 min to allow for full reduction of the active site. DiFMUP, drug, and protein were added, and plates were incubated for 20 min at room temperature. Fluorescence intensities were measured on a Cytation 5 plate reader (Biotek) at an EX:360 nm and EM:460 nm. […] Inhibition selectivity for PRLs over a panel of other phosphatases was determined using PhosphataseProfiler (Eurofins, Cat # PP260).

As to `CCOc1nc2cccc(C(=O)O)c2n1Cc1ccc(-c2ccccc2-c2nnn[nH]2)cc1` [Candesartan], the “% Phosphatase Activity (compared to DMSO) PRL-1” value at recombinant PRL-1 amounted to 106%; at recombinant PRL-1 (setting [3]) it was 6.33%. Besides, the IC50 was 69 ± 8 µM on recombinant PRL-1 ([…] protein); 80 ± 15 µM at recombinant PRL-2 ([…] protein, DiFMUP at KM, read-out: Calculated IC50, PRL-2 phosphatase activity); 28 ± 4 µM at recombinant PRL-3 ([…] protein). Besides, the “% Phosphatase Activity (compared to DMSO) PRL-2” value at recombinant PRL-2 turned out to be 92%; on recombinant PRL-2 (setting [3]), 13%. In addition, the “% Phosphatase Activity (compared to DMSO) PRL-3” value at recombinant PRL-3 is on record as 82%; at recombinant PRL-3 (setting [3]), -3.55%. For the same molecule, at recombinant PRL-3, the “mode of inhibition (Lineweaver-Burke analysis)” value is “non-competitive inhibitors”. Besides, the “cellular migration in control cells” value in the experiment on HEK293T cells [1] was “no corresponding reduction in migration”. In the experiment on HEK293T cells [1], the “cellular migration in PRL-3 overexpressing cells” value is on record as “significant inhibition of cellular migration”. The “cell cycle (EdU staining)” value in the experiment on HEK293T cells [2], in the experiment on HCT116 cells and with SW480 cells was “did not significantly impact” in each case. The “Percent Phosphatase Activity (compared to DMSO)” value (from here on “Percent Phosphatase Activity”) was determined as 113% on ACP1 (LMPTP-B); 105% at PP1alpha; 85% at PTPbeta; 100% at CD45; 107% on Lambda PP; 110% in the experiment on PP2A. Moreover, the “Percent Phosphatase Activity” value is listed as 109% at PTPMEG; 97% at PTPMEG2; 116% at SHP1; 104% on SHP2; 87% at VHR.
`CC(C)=CCC/C(C)=C/CC/C(C)=C/CSc1ccccc1C(=O)O` [Salirasib]: the IC50 at recombinant PRL-1 (2.5 µM protein) is 53 ± 5 µM; on recombinant PRL-3 (2.5 µM protein), 27 ± 3 µM. Also, the “% Phosphatase Activity (compared to DMSO) PRL-1” value at recombinant PRL-1 is on record as 26%. Further, the “% Phosphatase Activity (compared to DMSO) PRL-2” value on recombinant PRL-2 turned out to be 6%. In addition, the “mode of inhibition (Lineweaver-Burke analysis)” value at recombinant PRL-3 was “non-competitive inhibitors”. Besides, the “cellular migration in control cells” value in the experiment with HEK293T cells [1] is on record as “no corresponding reduction in migration”. Also, the “cellular migration in PRL-3 overexpressing cells” value in the experiment on HEK293T cells [1] is “significant inhibition of cellular migration”. For the same molecule, the “cell cycle (EdU staining)” value in the experiment with HEK293T cells [2], in the experiment with HCT116 cells and in the experiment with SW480 cells was “did not significantly impact” throughout. Moreover, the “Percent Phosphatase Activity” value was 106% at ACP1 (LMPTP-B); 104% on PP1alpha; 91% on PTPbeta; 102% at CD45; 112% on Lambda PP; 107% with PP2A. Moreover, the “Percent Phosphatase Activity” value at PTPMEG was found to be 107%; on PTPMEG2, 102%; at SHP1, 113%; on SHP2, 103%; on VHR, 97%.

What is called IC50 is the point on the concentration scale where inhibition reaches its midpoint.
